From US20040067991A1, “Tetrahydrobenzothiazole analogues as neuroprotective agents” (priority 2003, published 2004) come the findings set out here.

“Also recorded” adds a separate entry of the source. Structures can show the parent of a compound that is named as a salt. Where two headings read alike, the source gives them in different places.

Data set [1] has as its system substantia nigra dopaminergic neurons. Put plainly: MPTP model: TH-immunostained cells in the substantia nigra. The class given is in vivo, mouse. Conditions: 2 mg/kg, seven days after treatment, 4 mice/group. The method, then:
(§1) The ability of PFTα (5) and compounds 5× (Z-1-117) and 13 (Z-1-143) to protect dopaminergic neurons against MPTP toxicity was tested. MPTP (20 mg/kg) was administered intraperitoneally to 2 month-old male C57BL/6 mice by four injections at two hour intervals to induce dopaminergic cell death.
In yet another experiment, the number of TH-immunostained cells in the substantia nigra was assessed in four animals seven days after treatment. Mice were euthanized and perfused by 4% paraformadehyde transcardially. Brain sections were cut and immunostained with an antibody against TH. PFT-A and compound 5× attenuated MPTP-induced loss of substantia nigra dopaniinergic neurons.

For data set [2], the system named is PC12 cells. As to the kind of experiment: Protection of PC12 cells against camptothecin-induced cell death (BCECF AM fluorescence). The class given is cell-based. The method, then:
The 2-amino-4,5,6,7-tetrahydrobenzothiazole hydrogen iodide, 1-(4-methylphenyl)-2-(4,5,6,7-tetrahydro-2-imino-3(2H)-benzothiazolyl)-ethanone hydrobromide, and analogues were tested for their ability to protect PC12 cells against the toxic agent, camptothecin. PC12 cells were cultured in RPMI1640 media containing 10% horse serum and 5% fetal calf serum (37° C., pH 7.4) until confluent. Thereafter, 2.2×10^4 cells per mL were added to each trough of a 96 well plate (approximately 6,270 cells per well 285 μL) and were left to grow for 12 h. The media then was removed and was replaced by media with and without the compounds to be tested, including precursor, PFTα, and numerous analogues (concentration 100-400 nM, prepared in DMSO to a final dilution of 0.4%, 8 wells per concentration). Following 6 h of incubation, camptothecin (40 μM) was added to 4 of each 8 wells, and the cells were incubated for a further 24 h. Cells then were gently washed twice with phosphate buffered saline (PBS: 0.1 M, 37° C., pH 7.4) and were incubated in PBS containing the live-cell indicator dye, 2′,7′-bis(2-carboxyethey)-5-6-carboxyfluorescein AM ester (BCECF AM: 5 μM) (Molecular Probes, CA), for 45 min in minimal light. This fluorescent dye was taken up and retained by live cells. Finally, the cells were washed twice in PBS and their fluorescence then was quantified (excitation: 490 nm, emission: 535 nm, Perkin Elmer HTS 7000).
PC12 cell survival was also assessed. One hundred percent cell survival was determined from cells incubated in the absence of both any compound and camptothecin. […] Compound-induced toxicity was assessed by comparing cells treated with compound at various concentrations in the absence of camptothecin with cells incubated in the absence of both compound and camptothecin. […] Compound-induced cellular protection was assessed by comparing cells incubated with camptothecin with cells incubated with camptothecin in the presence of compound, in a concentration-dependent manner.

For data set [3], the system named is striatal tyrosine hydroxylase (TH). As to the kind of experiment: MPTP model: striatal tyrosine hydroxylase levels by Western blot densitometry. The class given is in vivo, mouse. The settings on record: 2 mg/kg, 7 days later, hydrobromide. The method, then: as §1
Levels of tyrosine hydroxylase (TH), the enzyme that catalyzes the rate-limiting step in dopamine synthesis, also were assessed in the striatum using Western blot analysis.
In general terms: Immunoblotting shows a protein as a band on a membrane.

The subject of data set [4] is C57BL/6 mice, middle cerebral artery occlusion. Put plainly: Transient focal cerebral ischemia/reperfusion (middle cerebral artery occlusion) stroke model. The class given is in vivo, mouse. As for the experimental part: Surgery was performed in anesthetized (xylazine 5 mg/kg, chloral hydrate 350 mg/kg) mice (3 month old C57B1/6) in accordance with a protocol approved by the NIH Animal Care and Use Committee. The focal ischemia/reperfusion model has been described previously. See Bruce et al. (1996) Nat. Med. 2:788-94. This method involves occluding the middle cerebral artery for 1 h with a nylon thread, and then removing it to allow reperfusion. During the procedure, mice were maintained at 37° C. and blood gases, flow and pressure were monitored. At 24 h after ischemia, mice were anesthetized, decapitated, and their brains were cut into 2 mm coronal sections, which then were stained with triphenyltetrazolium for 30 min at 37° C. Images of the stained brains were captured by digital camera for quantitative analysis of infarct area and volume.
The infarct volume for vehicle was 40 mm^3. When mice were treated with PFTα, infarct volume was 20 mm^3, a highly significant 50% decrease.

Data set [5] concerns C57BL/6 mice given MPTP. As to the kind of experiment: MPTP model: striatal dopamine, serotonin and metabolites by HPLC. Type of data set: in vivo, mouse. The settings on record: striatal tissue; for levels of dopamine, DOPAC, and HVA as compared to the MPTP-induced reduction (in words): 2 mg/kg; for 5-HIAA / 5-HT / DOPAC / Dopamine / HVA: compound 2 mg/kg + MPTP, mean±SE, 4-6 mice/group. The method, then: as §1
In a separate experiment, levels of striatal dopamine, dopamine metabolites, serotonin, and serotonin metabolites were measured using HPLC analysis. Specifically, mice were euthanatized, and striatal tissue samples were removed and levels of dopamine, DOPAC, HVA, 5-HT, 5-HIAA were quantified. […] There was no significant difference in levels of serotonin or serotonin metabolites.

Data set [6] deals with rat hippocampal neurons. As to the kind of experiment: Neuronal survival assay in cultured hippocampal neurons treated with camptothecin or etoposide. Type of data set: cell-based. Conditions: for neuroprotection of hippocampal neurons against etoposide (in words): added 1 h before etoposide 2.5 μM; for protection of primary hippocampal cells against death induced by camptothecin and etoposide (in words): camptothecin 5 μM, etoposide 2.5 μM; for protection of primary hippocampal cells against death induced by camptothecin and etoposide (in words) / neuronal survival: 24 h; for neuronal survival: pretreated with 100 nM of analogue, then camptothecin (5 μM). As for the experimental part:
2-amino-4,5,6,7-tetrahydrobenzothiazole hydrogen and 1-(4-methylphenyl)-2-(4,5,6,7-tetrahydro-2-imino-3(2H)-benzothiazolyl)-ethanone hydrobromide and their analogues were assessed for their ability to protect rat hippocampal cells in culture from camptothecin ([…]).
Dissociated hippocampal cell cultures were established from embryonic day 18 Sprague-Dawley rats (Harlan, Inc.) as described previously. […] 77:220-28. Cells were grown in polyethyleneimine-coated plastic dishes or 22 m^2 glass coverslips, and incubated in Neurobasal medium containing B27 supplements, 2 mM L-glutamine, 25 mg/ml gentamycin, 1 mM Hepes (Gibco BRL) and 0.001% gentamicin sulfate. All experiments were performed using 9-10 day-old cultures. Camptothecin and etoposide (Signia) were prepared as 500× stocks in DMSO. Neuron survival was quantified by established methods. […] Briefly, viable neurons in premarked fields (10× objective) were counted before experimental treatment and at specified time points thereafter. Neurons with intact neurites of uniform diameter and soma with a smooth round appearance were considered viable. In contrast neurons with fragmented neurites and vacuolated soma were considered non-viable.

The subject of data set [7] is C57BL/6 mice given MPTP. Put plainly: MPTP-induced Parkinson's disease model: rotarod behavioral tests. Type of data set: in vivo, mouse. Conditions: 2 mg/kg i.p. 30 min before first and 30 min after last MPTP injection; day 7. As for the experimental part: as §1
At seven days, behavioral tests were performed using the rotarod test equipment. The number of falls and running times were measured.

Where [8] appears, read: compounds 100-400 nM, camptothecin 40 μM 24 h.
[9] abbreviates: 6 h preincubation with compound, camptothecin 40 μM for 24 h; read-out: PD50; concentration of compounds required to induce 50% protection (PC50) of PC12 cells from camptothecin-induced cell-death.

Take `Cc1ccc(C(=O)Cn2c3c(sc2=N)CCCC3)cc1` [Compound 5, 1-(4-methylphenyl)-2-(4,5,6,7-tetrahydro-2-imino-3(2H)-benzothiazolyl)-ethanone hydrobromide, reference compound]: the “MPTP-induced loss of substantia nigra dopaminergic neurons, TH-positive cells (in words)” value in data set [1] was “attenuated”. Also, the “neuronal survival of PC12 cells increased” value in data set [2] (compared to PC12 cells treated with camptothecin in the absence of PFTα) is recorded as “up to 70%”. Also, the “protection of PC12 cells against camptothecin-induced death (in words)” value (shortened to “protection of PC12 cells”) in data set [2] (setting [8]) is on record as “protected”. Further, the EC50 in data set [2] (read-out: PD50; concentration of compounds required to induce 50% protection (PC50) of PC12 cells from camptothecin-induced cell-death; 6 h preincubation with compound, camptothecin 40 μM for 24 h) turned out to be 252 nM. In addition, the “MPTP-induced loss of striatal tyrosine hydroxylase (in words)” value in data set [3] (listed as PFT-a) was “reverse the MPTP reduction in TH levels”. The “MPTP-induced loss of striatal tyrosine hydroxylase (in words)” value in data set [3] (listed as PFT-alpha) is on record as “attenuate”. Also, in data set [4] (2 mg/kg i.p.), the “brain entry after systemic administration (in words)” value was “entered and acted in the brain”; the “infarct area at four different brain levels (in words)” value is reported as “reduction in the infarct area”. In addition, the infarct volume in data set [4] (2 mg/kg i.p. before 1 h MCA occlusion, 24 h after ischemia) was 20 mm^3. The “decrease in infarct volume” value in data set [4] (2 mg/kg i.p., versus vehicle (40 mm^3)) was found to be 50%. Also, in data set [5], the “levels of dopamine, DOPAC, and HVA as compared to the MPTP-induced reduction (in words)” value is reported as “statistically significant increase”; the 5-HIAA is 245 ± 33 pg/mg tissue weight; the 5-HT stood at 419 ± 20 pg/mg tissue weight; the DOPAC is 170 pg/mg tissue weight. Further, in data set [5], the Dopamine is 3314 pg/mg tissue weight and the HVA was 328 ± 35 pg/mg tissue weight. For the same molecule, the “improved cell survival compared to vehicle controls after pretreatment” value in data set [6] (200 nM pretreatment 1 hour, camptothecin 5 μM or etoposide 2.5 μM) is “improved cell survival”. Further, in data set [6], the “neuroprotection of hippocampal neurons against etoposide (in words)” value is listed as “had activity” and the neuronal survival is recorded as 62%. The “protection of primary hippocampal cells against death induced by camptothecin and etoposide (in words)” value in data set [6] (listed as PFTα, hydrobromide) is given as “protects; also recorded: potent activity”. Also, the “toxicity when administered alone to hippocampal cells” value in data set [6] (concentrations up to 400 nM) is “neither PFTα (5) nor its precursor were toxic”. In data set [7], the “number of falls on rotarod (in words)” value is recorded as “statistically significant decease” and the “running time on rotarod (in words)” value is “statistically significant increase”.

Consider `Br.Cc1ccc(C(=O)Cn2c3c(sc2=N)CC(C)CC3)cc1` (stereo not shown) [Compound 5×, 1-(4-methylphenyl)-2-(4,5,6,7-tertahydro-2-imino-6-methyl-3(2H)-benzothiazolyl)-ethanone hydrobromide], for which the “MPTP-induced loss of substantia nigra dopaminergic neurons, TH-positive cells (in words)” value in data set [1] was “attenuated”. Moreover, the EC50 in data set [2] (setting [9]) was determined as 306 nM. In data set [2] (setting [8]), the “protection of PC12 cells” value was “highly potent”. Moreover, in data set [3], the “MPTP-induced loss of striatal tyrosine hydroxylase (in words)” value is “attenuate; also recorded: reverse the MPTP reduction in TH levels”. Also, in data set [5], the “levels of dopamine, DOPAC, and HVA as compared to the MPTP-induced reduction (in words)” value is recorded as “statistically significant increase”; the 5-HIAA was determined as 246 ± 15 pg/mg tissue weight; the 5-HT came out at 424 ± 12 pg/mg tissue weight; the DOPAC is given as 102 pg/mg tissue weight. Further, in data set [5], the Dopamine is on record as 1833 pg/mg tissue weight and the HVA came out at 302 ± 20 pg/mg tissue weight. Besides, the “neuroprotection of hippocampal neurons against camptothecin (in words)” value in data set [6] (100 nM, added 1 h before camptothecin 5 μM) is listed as “could not protect neurons effectively”. Besides, in data set [6], the “neuroprotection of hippocampal neurons against etoposide (in words)” value is recorded as “activity comparable to PFTα”; the “protection of primary hippocampal cells against death induced by camptothecin and etoposide (in words)” value is given as “highly potency”; the neuronal survival stood at 29%. Further, in data set [7], the “number of falls on rotarod (in words)” value was “statistically significant decease” and the “running time on rotarod (in words)” value was “statistically significant increase”.

As to `Br.N=c1sc2c(n1CC(=O)c1ccccc1)CCCC2` [Compound 13, 1-phenyl-2-(4,5,6,7-tertahydro-2-imino-3(2H)-benzothiazolyl)-ethanone hydrobromide], the EC50 in data set [2] (setting [9]) came to 169 nM. Further, the “protection of PC12 cells” value in data set [2] (compounds 100-400 nM, camptothecin 40 μM 24 h; hydrobromide) is listed as “highly potent; also recorded: highly active in PC12 cells only”. Further, in data set [5], the 5-HIAA stood at 223 ± 45 pg/mg tissue weight, the 5-HT came to 429 ± 42 pg/mg tissue weight, the DOPAC turned out to be 10 ± 10 pg/mg tissue weight and the Dopamine amounted to 440 pg/mg tissue weight. Moreover, the HVA in data set [5] stood at 91 ± 58 pg/mg tissue weight.
